The source of these data is patent publication US20260042755A1, “GPR6 INVERSE AGONISTS” (MapLight Therapeutics, Inc., priority 2022, published 2026).

One assay addresses T1, GPR3 (Homo sapiens, UniProt P46089).
T1 construct: expressed in transfected cells; host or cells: CHO cells
Description: GPR3 antagonist functional cAMP assay (LANCE Ultra cAMP TR-FRET, CHO cells stably expressing GPR3). It is filed as cell-based. The procedure, abridged:
(§1)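 Cells in Krebs-Ringer buffer with 0.1% BSA and 150 μM Ro 20-1724 PDE inhibitor were exposed to compounds for 45 min at 37 °C (0.1% DMSO). cAMP was read by TR-FRET at 665 nm; IC50s came from 4-parameter fits normalized to DMSO and reference compound.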
For orientation: Cyclic AMP is a second messenger, typically raised through Gs and lowered through Gi signalling.

The target of another assay is T2, GPR6 (Homo sapiens, UniProt P46095).
T2 construct: expressed in transfected cells; host or cells: CHO cells
T2 sequence (P46095 whole entry): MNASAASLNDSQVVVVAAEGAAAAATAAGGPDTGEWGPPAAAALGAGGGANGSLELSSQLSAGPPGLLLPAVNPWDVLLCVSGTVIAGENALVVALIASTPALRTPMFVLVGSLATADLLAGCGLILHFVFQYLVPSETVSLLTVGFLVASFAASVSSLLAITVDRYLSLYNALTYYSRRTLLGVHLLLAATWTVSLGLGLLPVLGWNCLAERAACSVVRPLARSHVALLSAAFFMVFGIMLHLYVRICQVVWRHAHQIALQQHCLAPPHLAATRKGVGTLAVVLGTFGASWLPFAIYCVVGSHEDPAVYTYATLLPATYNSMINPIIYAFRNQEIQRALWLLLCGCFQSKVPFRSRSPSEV
Description: GPR6 antagonist functional cAMP assay (LANCE Ultra cAMP TR-FRET, CHO cells stably expressing GPR6). In kind it is cell-based. The procedure, abridged:
as §1

The mark [1] stands for this setting: CHO cells stably expressing GPR3, cAMP assay (Example 24).
Where [2] appears, read: CHO cells stably expressing GPR6, cAMP assay (Example 24).
Setting [3] is: procedure as described in Example 24.
Where [4] appears, read: CHO cells stably expressing GPR3, cAMP assay.
[5] abbreviates: CHO cells stably expressing GPR6, cAMP assay.

T1 sequence (P46089 whole entry, species assumed): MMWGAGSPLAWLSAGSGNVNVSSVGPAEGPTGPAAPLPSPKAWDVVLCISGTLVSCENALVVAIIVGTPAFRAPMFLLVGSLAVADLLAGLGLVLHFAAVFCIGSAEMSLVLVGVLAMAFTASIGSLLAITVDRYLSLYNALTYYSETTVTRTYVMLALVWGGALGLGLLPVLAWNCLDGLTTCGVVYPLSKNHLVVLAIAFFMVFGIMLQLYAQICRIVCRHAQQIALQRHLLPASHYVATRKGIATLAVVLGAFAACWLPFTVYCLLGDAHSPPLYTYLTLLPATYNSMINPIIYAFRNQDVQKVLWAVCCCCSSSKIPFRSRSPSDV

In general, IC50 refers to the point on the concentration scale where inhibition reaches its midpoint. Consider `CNC(=O)C(C)N1CCc2nc(N3CCC(Oc4ccc(F)cc4F)CC3)c(-c3cnn(C4CCCCO4)c3)nc2C1` (stereo not shown) [Compound 146, 2-{2-[4-(2,4-difluorophenoxy)piperidin-1-yl]-3-[1-(oxan-2-yl)-1H-pyrazol-4-yl]-5H,6H,7H,8H-pyrido[3,4-b]pyrazin-6-yl}-N-methylpropanamide], for which the IC50 on GPR3 (setting [1]) and against GPR6 (setting [2]) was 1000 to 30000 nM throughout.
Regarding `Cn1cc(-c2nc3cnccc3nc2N2CCN(Cc3ccc(F)cc3F)CC2=O)cn1` [Compound 259, 4-(2,4-difluorobenzyl)-1-(3-(1-methyl-1H-pyrazol-4-yl)pyrido[3,4-b]pyrazin-2-yl)piperazin-2-one], the IC50 against GPR3 (setting [1]) and against GPR6 (setting [2]) was at least 30000 nM throughout.
For `CC(=O)N1Cc2nc(-c3cnn(C)c3)c(N3CCC(Oc4ccc(F)cc4F)CC3)nc2CC1C` (stereo not shown) [Compound 394, 1-{2-[4-(2,4-difluorophenoxy)piperidin-1-yl]-7-methyl-3-(1-methyl-1H-pyrazol-4-yl)-5H,6H,7H,8H-pyrido[3,4-b]pyrazin-6-yl}ethan-1-one], the IC50 on GPR3 (setting [1]) is 1000 to 30000 nM; against GPR6 (setting [2]) it was 100 to 1000 nM.
For `CC(=O)N1CCc2nc(N3CCC(Oc4ccc(F)cc4F)CC3)c(C3=COCCC3)nc2C1` [Compound 219, 1-{2-[4-(2,4-difluorophenoxy)piperidin-1-yl]-3-(3,4-dihydro-2H-pyran-5-yl)-5H,6H,7H,8H-pyrido[3,4-b]pyrazin-6-yl}ethan-1-one], in that order: at least 30000 nM and 100 to 1000 nM.
The matching figures for `C[C@@H](O)[C@@H](O)c1cc2nc(N3CCC(Oc4ccc(F)cc4F)CC3)c(-c3cnn(C)c3)nc2cn1` (single isomer, unassigned) [Compound 472]: 1000 to 30000 nM and 100 to 1000 nM.
For the molecule `CC(=O)N1CCc2nc(N3CCC(Oc4ccc(F)cc4F)CC3)c(-c3ccn(C(=O)OC(C)(C)C)c3)nc2C1` [Compound 53, tert-butyl 3-{6-acetyl-2-[4-(2,4-difluorophenoxy)piperidin-1-yl]-5H,6H,7H,8H-pyrido[3,4-b]pyrazin-3-yl}-1H-pyrrole-1-carboxylate], the IC50 against GPR3 (setting [3]) was 100 to 1000 nM; against GPR6 (setting [3]), 1000 to 30000 nM.
Turning to `CCCn1cc(-c2nc3c(nc2N2CCC(Oc4ccc(F)cc4F)CC2)CCN(C(C)=O)C3)cn1` [Compound 312, 1-{2-[4-(2,4-difluorophenoxy)piperidin-1-yl]-3-(1-propyl-1H-pyrazol-4-yl)-5H,6H,7H,8H-pyrido[3,4-b]pyrazin-6-yl}ethan-1-one], the results for the IC50 at GPR3 (procedure of Example 24) and on GPR6 (procedure of Example 24) were 1000 to 30000 nM and under 100 nM, respectively.
For `O=S1(=Nc2ccc(F)cc2F)CCN(c2nc3ccncc3nc2-c2cn[nH]c2)CC1` [Compound 58, 4-(3-(1H-pyrazol-4-yl)pyrido[3,4-b]pyrazin-2-yl)-1-((2,4-difluorophenyl)imino)-1l6-thiomorpholine 1-oxide], the 50% inhibitory concentration (IC50) at GPR3 (setting [1]) and on GPR6 (setting [2]) was 1000 to 30000 nM throughout.
Regarding `CNc1cccc(-c2nc3c(nc2N2CCC(Oc4ccc(F)cc4F)CC2)CCN(C(C)=O)C3)n1` [Compound 117, 1-{2-[4-(2,4-difluorophenoxy)piperidin-1-yl]-3-[6-(methylamino)pyridin-2-yl]-5H,6H,7H,8H-pyrido[3,4-b]pyrazin-6-yl}ethan-1-one], the IC50 against GPR3 (setting [1]) was 1000 to 30000 nM; on GPR6 (setting [2]) it was 100 to 1000 nM.
For the molecule `CC(C)(O)[C@H](O)c1cc2nc(-c3cnn(C(F)F)c3)c(N3CCN(Cc4ccccc4F)CC3)nc2cn1` (single isomer, unassigned) [Compound 685], the concentration for half-maximal inhibition (IC50) was in the range of 1000 to 30000 nM on GPR3 (procedure of Example 24) and 100 to 1000 nM against GPR6 (procedure of Example 24).
For `Cn1cc(-c2nc3ccc(C(O)C(C)(C)O)nc3nc2N2CCC(Oc3ccc(F)cc3F)CC2)cn1` (stereo not shown) [Compound 587, 1-{3-[4-(2,4-difluorophenoxy)-1-piperidyl]-2-(1-methyl-4-pyrazolyl)-1,4,5-triaza-6-naphthyl}-2-methyl-1,2-propanediol], the half-inhibitory concentration (IC50) at GPR3 (setting [4]) and at GPR6 (setting [5]) was 1000 to 30000 nM throughout.
As for `CC(=O)N1CCc2nc(N3CCC(Oc4ccc(F)cc4C)CC3)c(-c3cnn(C)c3)nc2C1` [Compound 432, 1-{2-[4-(4-fluoro-2-methylphenoxy)piperidin-1-yl]-3-(1-methyl-1H-pyrazol-4-yl)-5H,6H,7H,8H-pyrido[3,4-b]pyrazin-6-yl}ethan-1-one], the IC50 at GPR3 (setting [1]) and against GPR6 (setting [2]) was 1000 to 30000 nM in each case.
As for `COc1ccc(C(=O)N2CCN(c3nc4c(nc3-c3cnn(C)c3)CN(C(C)=O)CC4)CC2)cc1` [Compound 283, 1-{2-[4-(4-methoxybenzoyl)piperazin-1-yl]-3-(1-methyl-1H-pyrazol-4-yl)-5H,6H,7H,8H-pyrido[3,4-b]pyrazin-6-yl}ethan-1-one], the IC50 on GPR3 (procedure of Example 24) and at GPR6 (procedure of Example 24) was 1000 to 30000 nM each time.
Consider `CC(=O)N1CCc2nc(N3CCC(Oc4ccc(F)cc4F)CC3)c(-c3ncco3)nc2C1` [Compound 18, 1-{2-[4-(2,4-difluorophenoxy)piperidin-1-yl]-3-(1,3-oxazol-2-yl)-5H,6H,7H,8H-pyrido[3,4-b]pyrazin-6-yl}ethan-1-one], for which the IC50 lay in the range of 100 to 1000 nM against GPR3 (setting [3]) and 1000 to 30000 nM at GPR6 (setting [3]).
With `CC(=O)N1CCc2nc(N3CCC(Oc4ccc(F)cc4F)CC3)c(-c3cccc4nccn34)nc2C1` [Compound 129, 1-{2-[4-(2,4-difluorophenoxy)piperidin-1-yl]-3-{imidazo[1,2-a]pyridin-5-yl}-5H,6H,7H,8H-pyrido[3,4-b]pyrazin-6-yl}ethan-1-one], the 50% inhibitory concentration (IC50) against GPR3 (setting [1]) and on GPR6 (setting [2]) was 1000 to 30000 nM throughout.
As to `COCC1CC1c1nc2c(nc1N1CCC(Oc3ccc(F)cc3F)CC1)CCN(C(C)=O)C2` (stereo not shown) [Compound 463, 1-(2-(4-(2,4-difluorophenoxy)piperidin-1-yl)-3-(2-(methoxymethyl)cyclopropyl)-7,8-dihydropyrido[3,4-b]pyrazin-6(5H)-yl)ethan-1-one], the half-inhibitory concentration (IC50) at GPR3 (setting [1]) lay within 1000 to 30000 nM; at GPR6 (setting [2]), 100 to 1000 nM.
Take `CC(=O)N1CCc2nc(N3CCN(C(=O)c4ccc(F)cc4C#N)CC3)c(-c3cnn(C)c3)nc2C1` [Compound 286, 2-{4-[6-acetyl-3-(1-methyl-1H-pyrazol-4-yl)-5H,6H,7H,8H-pyrido[3,4-b]pyrazin-2-yl]piperazine-1-carbonyl}-5-fluorobenzonitrile]: the half-maximal inhibitory concentration (IC50) on GPR3 (procedure of Example 24) was at least 30000 nM; on GPR6 (procedure of Example 24), 1000 to 30000 nM.
For the molecule `CC(=O)N1Cc2nc(-c3cnn(C)c3)c(N3CCC(Oc4ccc(F)cc4F)CC3)nc2C(C)C1` (stereo not shown) [Compound 540, 1-{2-[4-(2,4-difluorophenoxy)-1-piperidyl]-8-methyl-3-(1-methyl-4-pyrazolyl)-5,6,7,8-tetrahydro-1,4,6-triaza-6-naphthyl}-1-ethanone], the values for the IC50 on GPR3 (setting [4]) and at GPR6 (setting [5]) were 1000 to 30000 nM and under 100 nM, respectively.
As for `CC(C)(O)Cc1cc2nc(N3CCC(Oc4ccc(F)cc4F)CC3)c(-c3cnn(C(F)F)c3)nc2cn1` [Compound 700, 1-{3-[1-(difluoromethyl)-4-pyrazolyl]-2-[4-(2,4-difluorophenoxy)-1-piperidyl]-1,4,6-triaza-7-naphthyl}-2-methyl-2-propanol], the IC50 against GPR3 (procedure of Example 24) fell in the range of 1000 to 30000 nM; against GPR6 (procedure of Example 24), 100 to 1000 nM.
For the molecule `CCn1cc(-c2nc3c(nc2N2CCC(Oc4ccc(F)cc4F)CC2)CCN(C(=O)C2COCCN2C)C3)cn1` (stereo not shown) [Compound 492, 3-{2-[4-(2,4-difluorophenoxy)piperidin-1-yl]-3-(1-ethyl-1H-pyrazol-4-yl)-5H,6H,7H,8H-pyrido[3,4-b]pyrazine-6-carbonyl}-4-methylmorpholine], the values for the concentration for half-maximal inhibition (IC50) against GPR3 (setting [4]) and against GPR6 (setting [5]) were 1000 to 30000 nM and 100 to 1000 nM, respectively.
